Data from patent publication US20160237302A1, “WATERBORNE COMPOSITIONS” (VICTORIA LINK LIMITED, priority 2013, published 2016).

Assays:
Format in all cases: physicochemical
[1] = Appearance of polyketone in water at 20% w/v
Experimental: (§1) To a solution or dispersion of the polyketone (1 g in 5 mL of distilled water) is added hydrazide (0.9 stoichiometric equivalents of acyl hydrazide moiety compared to ketone functional group).

[2] = Glass transition temperature by DSC; conditions: for Tg: polyhydrazone from polyketone + 0.9 eq ADH, DSC
Experimental: Glass transition temperatures (Tg) are measured by differential scanning calorimetry (DSC). Samples were prepared by compressing 2-20 mg of material into a 40 μL pierced aluminium pan and were scanned between −40° and +180° C. at either 10° C./min or 5° C./min. The samples were heated and cooled three times and Tg data were obtained from the second and third sweep; ignoring the initial annealing and desolvating sweep. Tg were determined by observation of the rate of change of slope and baseline shift for the glass and plastic states.
as §1

[3] = Appearance of aqueous composition on hydrazide addition (polyhydrazone formation); conditions: appearance in water; for Polyhydrazone from 0.9 eq Formula II-B addition / Polyhydrazone from 0.9 eq Formula II-C addition: polyketone 20% w/v; for Polyhydrazone from 0.9 eq ADH addition: polyketone 20% w/v + 0.9 eq ADH
Experimental: as §1

[4] = Film formation of cast polyhydrazone material; conditions: for Cast material: cast from water
Experimental: as §1

[5] = Appearance of aqueous composition on hydrazide addition (polyhydrazone formation); conditions: water
[6] = Polyhydrazone formation in ACN, ACN/water, THF/water or water at 20-50% w/v; conditions: appearance
[7] = polyhydrazone from polyketone + 0.9 eq ADH
[8] = polyhydrazone from (7) and formula II-C, cast film

| SMILES | Polyketone in water at 20% w/v ([1]; 1 g in 5 mL distilled water) | Polyketone in water at 20% w/v ([1]; second table) | Tg [2] [°C] | Polyhydrazone from 0.9 eq Formula II-B addition [3] | Polyhydrazone from 0.9 eq ADH addition [3] | Polyhydrazone from 0.9 eq Formula II-C addition ([3]; initially after hydrazide addition) | Polyhydrazone from 0.9 eq Formula II-C addition ([3]; subsequently after hydrazide addition) | Cast material [4, 7] | Polyhydrazone from 0.9 eq Formula II-C addition [3] | Time over which cast film hardened [4, 7] | Polyhydrazone from 0.9 eq ADH addition, at higher concentrations [5] | Tg (annealed) [2, 8] [°C] | Tg (initial) [2, 8] [°C] | Polyhydrazone from 0.9 eq ADH in ACN at 50% w/v [6] | Polyhydrazone from 0.9 eq ADH in water at 50% w/v [6] | Polyhydrazone from 0.9 eq. Formula II-C in ACN at 50% w/v [6] | Cast film of polyhydrazone oil ([4]; polyhydrazone from (7) and formula II-C) |
| --- | --- | --- | --- | --- | --- | --- | --- | --- | --- | --- | --- | --- | --- | --- | --- | --- | --- |
| CC(=O)CCC(=O)OCCOC(=O)CCC(C)=O [Polyketone compound (1), Ethyleneglycol Dilevulinate] | Clear solution | Clear solution | 37 | White precipitate | Clear solution | Clear solution | precipitate forms | Shiny soft well adhered |  |  |  |  |  |  |  |  |  |
| CC(=O)CCC(=O)OCCOCCOC(=O)CCC(C)=O [Polyketone compound (2), Diethyleneglycol Dilevulinate] | Clear solution | Clear solution | 27 | Cloudy solution, gel | Clear solution |  |  | Soft easily marked film that | Cloudy solution, | hardened over 5-days. |  |  |  |  |  |  |  |
| CC(=O)CCC(=O)OCC(COC(=O)CCC(C)=O)OC(=O)CCC(C)=O [Polyketone compound (3), Glycerol Trilevulinate] | Unstable emulsion |  | 60 |  | Gels upon |  |  | Hard shiny well adhered |  |  |  |  |  |  |  |  |  |
| CC(=O)CCC(=O)OCCN(CCOC(=O)CCC(C)=O)CCOC(=O)CCC(C)=O [Polyketone compound (6), Triethanolamine Trilevulinate] | Clear solution | Clear solution | 38 | No reaction | Clear solution |  |  |  | Forms white solid |  | Gels at higher |  |  |  |  |  |  |
| CC(=O)CCC(=O)OC(C)C(C)OC(=O)CCC(C)=O (stereo not drawn) [Polyketone compound (7), 2,3-Butanediol Dilevulinate] | Unstable emulsion |  | 121 |  | Opaque solution |  |  | Hard film |  |  |  | 20 | 38.5 | Pale yellow solid | Pale yellow gel | Yellow oil | strong brittle film |
| CC(=O)CCC(=O)OCc1ccc(COC(=O)CCC(C)=O)cc1 [Polyketone compound (8), 1,4-Dimethanolbenzene Dilevulinate] |  |  |  |  |  |  |  |  |  |  |  |  |  | Yellow oil formed | Pale yellow gel |  |  |
